The results in this text go back to patent US7692012B2, “Vanadium compounds as inhibitors of phosphatases” (Imperial College Innovations Limited, priority 2003, dated 2010).

Series [1] has as its target T1, PTEN (Homo sapiens, UniProt P60484).
T1 construct: GST (N); made in house; host or cells: Escherichia coli DH5 alpha
Kind of series: Malachite green phosphate release assay with PI(3,4,5)P3. Type of series: biochemical. To be noted: head says published data; same values as the applicant's FIG. 1 study; read-out: PTEN Published data In vitro enzyme assay confirmed by in vivo data. As for the experimental part: The coding region of the DNA sequence of human PTEN was cloned into a pGEX-4T2 expression vector (Pharmacia). Protein expression was induced overnight in the Escherichia coli DH5[…] strain using 100 μM IPTG at 18 C. GST-fusion proteins were purified according to the manufacturer's manual using glutathione sepharose 4B (Pharmacia). Protein integrity and specificity were confirmed on a Western Blot using GST antibody (Novagen).
Enzyme activity of recombinant PTEN was measured with a malachite green dye based phosphate release assay (No 230, No 83). The standard assay conditions were 200 mM Tris pH 7.4, 50 ng/μl BSA, and 15 ng/μl PTEN. The synthetic lipid PI(3,4,5)P3dC16 (Cell Signals) was used as a substrate for PTEN. The lipid was dissolved in methanol/H2O and stored at −20 C. Prior to the use in these PIPase experiments, an appropriate amount of lipid was dried down and resuspended in 1% Octylglycoside (Sigma). After 10 min of sonication lipid samples were ready to be added to the enzyme assay. All assays were started by adding the enzyme into the pre-heated buffer solution, containing PI(3,4,5)P3dC16. Linear PIPase reactions were performed at 30 C for 30 min in an incubation chamber. In order to stop the enzyme reaction, 0.7 volume of colour reagent (2.3 mg/ml malachite green in 3.6 M HCl and 17 mM ammonium molybdate) was added to the enzyme solution. The mixture was allowed to develop for 20 min and the absorbance at 625 nm was measured. For all inhibitor studies inhibitor concentrations from 0.1 nM up to 500 nM were pre-incubated with PTEN and the enzyme assays were started by adding 150 μM sonicated lipid. To normalize the phosphate release a phosphate standard curve was used. All experiments were repeated in tripletts. Calculations for IC50 values were performed using GraphPad Prism.

The target of series [2] is T2, PTEN (Mus musculus, UniProt O08586).
T2 construct: endogenous in cells; host or cells: NIH3T3
T2 sequence (O08586 whole entry): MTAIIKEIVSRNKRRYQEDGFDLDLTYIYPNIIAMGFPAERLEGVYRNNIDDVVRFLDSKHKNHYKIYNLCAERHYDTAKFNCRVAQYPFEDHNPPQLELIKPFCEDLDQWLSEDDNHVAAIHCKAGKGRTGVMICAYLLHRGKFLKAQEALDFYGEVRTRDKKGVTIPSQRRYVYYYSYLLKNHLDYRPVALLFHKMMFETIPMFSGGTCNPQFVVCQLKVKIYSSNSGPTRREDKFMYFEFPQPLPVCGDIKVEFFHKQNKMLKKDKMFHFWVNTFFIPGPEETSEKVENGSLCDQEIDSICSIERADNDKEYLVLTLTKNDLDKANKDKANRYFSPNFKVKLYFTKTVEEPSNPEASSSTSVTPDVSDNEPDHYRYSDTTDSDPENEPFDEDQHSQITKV
Kind of series: PKB assay: dose dependence of PTEN inhibition in insulin-stimulated NIH3T3 cells (pSer473 Western blot). Type of series: cell-based. As to the method: (§1) NIH3T3 cells (passage 5-20) were grown in 10% NCS D-MEM (GIBCO BRL) in 6-well plates at 37 C and 5% CO2. Starvation of the cells was carried out over 72 h in D-MEM containing 0.5% NCS. Prior use medium was changed to 0% D-MEM. UM-UC-3 cells which is a PTEN^− bladder tumour cell line (NO 195, No 196) were grown in 10% MEM (GIBCO BRL), starved with 0.5% MEM also for three days and finally incubated with serum free MEM.
UM-UC-3 cells were treated in exactly the same manner. Cell samples were analysed on Western Blots with PKB antibodies.
(§2) All cell lysate samples were loaded on 10% SDS-PAGE and transferred to PVDF membranes for PKB analysis and nitrocellulose for phospho tyrosine detection. For PKB Western Blots membranes were blocked for 1 h with 5% milk powder in TBST followed by an incubation with anti Mass PKB antibody (1:1000) or anti phospho-PKB (Ser473) antibody (1:1000) in TBST for 2 h. Finally, membranes were exposed to a horseradish peroxidase-conjugated secondary antiserum (BIORAD) (1:1000) in 5% milk powder solution for 1 h. The Western Blots were developed with ECL™ solution (Amersham). In order to detect phosphorylated tyrosine residues nitrocellulose membranes were blocked for 1 h with 2.5% milk powder, first incubated with a specific anti phosphotyrosine antibody (4G10) (1:3000) for 1 h, and finally with horseradish peroxidase-conjugated secondary anti mouse antiserum. All PKB and Phospho-Tyrosine experiments were accomplished in three independent experiments and all membranes were re-probed using a specific tubulin antibody (1:1000). Density analysis of bands took place using the public domain NIH Image V1.62 program (developed at the U.S. National Institutes of Health and available on the Internet at http://rsb.info.nih.gov/nih-image/).

The subject of series [3] is PKB phosphorylation (pSer473) in NIH3T3 cells. The series is described as follows: PKB assay: activation of insulin signalling pathway (insulin mimetic property), NIH3T3. Type of series: cell-based. To be noted: NIH3T3, 1 μM, 15 min, no insulin. As to the method: as §1
Cells were washed once with PBS and lysed using 80 μl SDS-PAGE buffer (250 mM Tris pH 6.8, 20% glycerol, 4% SDS, 0.01% bromphenol blue, 50 mM mercaptoethanol). Samples were boiled for 15 min and stored at −20 C until analysis on Western Blots as described in the last paragraph.
as §2

The next series deals with NIH3T3 cells. Kind of series: Phalloidin staining (actin re-arrangement, morphology). Type of series: cell-based. To be noted: 0.1 μM, 6 h and 24 h. As to the method:
In order to monitor morphological changes NIH3T3 cells were grown on 8-well chamber slides and incubated with concentrations of bpV(pic) and bpV(phen) between 0.1 and 10 μM for 6 h and 24 h, respectively. Fibroblasts were fixed with 4% para-formaldehyde (PFA), permeabilised with 0.2% Triton and blocked with 10% NCS (newborn calf serum). To stain actin filaments cells were incubated with TRITC-phalloidin (Sigma) (1:1000) for 1 h. Finally, nuclei were DAPI (Sigma) stained and mounted. Morphological analyses were assessed on a microscope using filters for TRITC and DAPI and pictures were captured using a camera.

For series [4], the system named is PKB phosphorylation (pSer473) in NIH3T3 cells. The series is described as follows: Ly294002 dose dependence with and without bpV(pic). Type of series: cell-based. As for the experimental part: In order to find out whether bpV(pic) has an influence on Ly294002-dependent PKB inhibition we accomplished a dose response experiment applying concentrations from 0.01 up to 100 μM Ly294002 to two sets of quiescent fibroblasts and incubated for 20 min. One batch of cells were then further treated with 200 nM bpV(pic) (5 min) and all cells were finally stimulated with 10 μg/ml insulin for 15 min. Cell lysates were collected as described earlier. Calculations and graph were performed using GraphPad Prism.
as §2

T1 sequence (P60484 whole entry): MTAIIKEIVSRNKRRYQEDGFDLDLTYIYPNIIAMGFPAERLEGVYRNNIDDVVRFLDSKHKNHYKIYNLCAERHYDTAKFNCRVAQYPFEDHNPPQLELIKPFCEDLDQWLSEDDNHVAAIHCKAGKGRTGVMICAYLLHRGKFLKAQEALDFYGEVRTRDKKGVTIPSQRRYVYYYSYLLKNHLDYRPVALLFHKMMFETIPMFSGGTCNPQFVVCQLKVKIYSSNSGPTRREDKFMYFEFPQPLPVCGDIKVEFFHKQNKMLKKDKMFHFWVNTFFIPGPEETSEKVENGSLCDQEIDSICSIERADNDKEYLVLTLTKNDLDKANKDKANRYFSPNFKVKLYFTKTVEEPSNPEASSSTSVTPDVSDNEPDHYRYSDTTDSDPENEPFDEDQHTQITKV

Regarding “potassium bisperoxo (piconlinate) oxovanadate [bpV(pic)]”, the IC50 on PTEN [1] came out at 0.031 ± 0.0017 µM; on PTEN [2] (NIH3T3, 5 min compound then 0.5 μg/ml insulin 15 min, read-out: IC50 (in vivo PTEN inhibition, densitometry of pSer473 PKB)), 0.048 µM. For the same substance, the “increase of PKB phosphorylation in comparison with the control” value at PTEN [2] (20 nM compound, control 0.5 μg/ml insulin) was “about 20%”. The “phosphorylated PKB signal” value in series [3] is recorded as “weak signal”. For the same substance, the “cellular morphology (actin staining)” value with NIH3T3 cells was “remained unchanged”. Besides, the “effect on Ly294002 induced PKB inhibition” value in series [4] (200 nM bpV(pic), Ly294002 0.01 to 100 μM) is “can abrogate Ly294002 induced PKB inhibition”. In addition, the “PKB phosphorylation at 5 μM Ly294002” value in series [4] (in the presence of 200 nM bpV(pic)) is “phosphorylation still occurs”.
